“And” between values parts separate entries of the source, which are not always exact repeats. Equal entries are not always repeated. Where two headings read alike, the source gives them in different places.
Assays:
[1] = Chemical stability of ML336 with or without dithiothreitol (DTT), LCMS; conditions: for Averaged Percent ML336 Remaining after 8 h / Percent ML336 Remaining after 8 h: 10 μM in PBS pH 7.4 (1% DMSO), room temperature; for Percent ML336 Remaining after 8 h: single runs
VEEV = conditions: read-out: Reported VEEV CPE inhibition; cited from earlier work
VEEV TC-83 = assay: microbe, parasite or virus in culture; type: cell-based; conditions: Venezuelan equine encephalitis virus, Vero 76, read-out: Assay provided VEEV CPE inhibition
CYP450 (2C9, 2C19) = conditions: noted liability, Table 2, cited from earlier work
[2] = ML336 without nucleophile (control)

CN1CCN(C)/C(=N/c2ccc([N+](=O)[O-])cc2C(=O)Nc2ccccc2)C1 [ML336, (E)-2-((1,4-dimethylpiperazin-2-ylidene)amino)-5-nitro-N-phenylbenzamide]
adducts detected by LCMS ([1]; 50 μM DTT, sampled every hour for eight hours): no adducts were detected
Averaged Percent ML336 Remaining after 8 h ([1]; ML336 with 5X DTT (50 μM)): 98.96%
Percent ML336 Remaining after 8 h ([1]; ML336 with 5X DTT (50 μM)): 100.36% and 97.55%
Averaged Percent ML336 Remaining after 8 h [1, 2]: 93.92%
Percent ML336 Remaining after 8 h [1, 2]: 96.13% and 91.70%

COc1cc(NC(=O)Nc2cccc(CNC(=O)O[C@H]3CCOC3)c2)ccc1-c1cnco1 [VX-497]
IC50 (VEEV): 19.2 µM

Cc1cc(Cc2cc(C)cc(C(C)(C)C)c2O)c(O)c(Cc2cc(C)cc(C(C)(C)C)c2O)c1 [antioxidant 80]
IC50 (VEEV TC-83): > 50 µM
CYP450 (2C9, 2C19) inhibition (CYP450 (2C9, 2C19)): ~3 µM
CYP450 (2C9, 2C19) inhibition (CYP450 (2C9, 2C19); listed as Antioxidant 80): about 3 μM

O=C(O)Cc1ccccc1Nc1c(Cl)cccc1Cl [diclofenac sodium]
IC50 (VEEV TC-83): > 50 µM

NS(=O)(=O)c1ccc(-n2c(-c3ccccc3)nc3ccc(Br)cc3c2=O)cc1 [quinazolinone]
IC50 (VEEV TC-83): > 25 µM

NC(=O)c1ncn([C@@H]2O[C@H](CO)[C@@H](O)[C@H]2O)n1 [ribavirin]
IC50 (VEEV TC-83): 126 µM

From US10532999B2 (priority 2012, dated 2020)
